Results on one compound are retold here after patent publication US10980824B2, “Pharmaceutical composition comprising quercetin-3-O-β-D-xylopyranoside for preventing or treating liver disease” (Hongcheon Institute of Medical Herb, priority 2016, dated 2021).

Common to all, as to type: in vivo, C57BL/6N mice
The test system of assay [1] is p-ACC. In words: Western blot of p-ACC in liver tissue. The conditions noted are these: compound group vs alcohol-fed group. The protocol:
Expression of p-AMPKα, p-ACC, and CPT-1, which regulate intrahepatic lipid metabolism, was analyzed by western blot analysis to understand the mechanism involved in pathogenesis of alcoholic steatosis in detail. The specific western blot analysis method is as follows.
First, a mouse liver homogenate was prepared by using a RIPA buffer solution including a protease and tyrosine phosphatase inhibitor cocktail (Sigma). Protein concentrations of lysates were determined using a Bicinchoninic (BCA) Protein Assay Kit (Thermo Scientific, IL, USA) according to the manufacturer's instructions. Isolated soluble proteins ([…]) were separated on an 8% to 15% SDS-polyacrylamide gel. The separated proteins were electroblotted on a nitrocellulose transfer membrane (Bio-Rad, Hercules, Calif., USA). The membrane was incubated with 5% non-fat dry milk for 1 hour and then probed for antigens using antibodies diluted to 1:1,000, and was incubated with anti-pAMPKα, anti-AMPKα, anti-PACC, anti-ACC, anti-CYP2E1, anti-CPT1a (Cell Signaling Technology), and anti-β-actin (Santa Cruz Biotechnology) at 4° C. for 18 hours. […] Band density was measured using ImageJ (National Institutes of Health, Bethesda, Md., USA) and expressed as a multiple relative to β-actin.
A general note: Immunoblotting shows a protein as a band on a membrane.

In assay [2] the test system is alcoholic steatosis-induced mice. In words: Biochemical analysis of ALT and AST levels. The conditions noted are these: 1 mg/kg oral 10 days; EtOH+B vs EtOH-fed (FIG. 10). The procedure: (§1) 8-week-old C57BL/6N mice were purchased from DAEHAN BIOLINK to be used for efficacy evaluation and quarantined and acclimated in a vivarium of HONGCHEON INSTITUTE OF MEDICAL HERB for 7 days (relative temperature: 23±2° C., relative humidity: 50±5%, and a 12 h light-dark cycle) prior to the start of experimentation. Among them, 18 male mice with no abnormal symptoms were selected and used.
(§2) During a liquid diet adaptation period, a control group was restrictedly fed with a Lieber-DeCarli'82 control liquid diet (F1259SP, Bio-serv), and an alcohol-fed group was restrictedly fed with a Lieber-DeCarli'82 ethanol liquid diet (F1258SP, Bio-serv) using a Liquid diet feeding tube (9019, Bio-serv), and the diets were replaced with new ones at a preset time between 3 P.M. and 5 P.M.
(§3) After 5 days of the liquid diet adaptation period, the mice were orally administered with 1 mg/kg of quercetin-3-O-β-D-xylopyranoside (test substance) for 10 days and fed with a 5% alcohol liquid diet. At 11th day, between 7 A.M. and 9 A.M., a group not fed with alcohol (hereinafter referred to as Pair-fed group) was orally administered with a 45% maltose dextrin solution, and a group fed with a 5% liquid diet (hereinafter referred to as EtOH-fed) and a group administered with a test substance (hereinafter referred to as EtOH+B group) were orally fed with 31.5% ethanol. […]

The test system is the same in assay [3]. In words: Concentrations of triglycerides in the blood and liver. The conditions noted are these: 1 mg/kg oral 10 days; EtOH+B vs EtOH-fed (FIG. 7). The procedure:
as §1, §2, §3

Assay [4] relates to MCP-1. Kind of assay: mRNA level of MCP-1 by RT-PCR. The conditions noted are these: alcohol+compound group vs alcohol-fed group (FIG. 14). An excerpt:
Monocyte chemoattractant protein 1 (MCP-1), called chemokine ligand 2 (CCL2), is one of the key chemokines that regulate pathogeneses of several diseases caused by monocyte infiltration. Meanwhile, interleukin 1 beta (IL1β), also known as a leukocytic endogenous mediator and a lymphocyte activating factor, is a member of the interleukin 1 family of cytokines. The cytokines are produced by activated macrophages at a damaged region of tissue.
Specifically, mRNA levels of MCP-1 and IL-1β were analyzed by using RT-PCR as described above in Example 2-8.

The test system of assay [5] is cytochrome P-450 2E1 (CYP2E1). Kind of assay: Expression of cytochrome P-450 2E1 by tissue staining. The settings on record: liver tissue staining; 1 mg/kg oral 10 days; EtOH+B vs EtOH-fed (FIG. 8). The procedure:
as §1, §2, §3

Assay [6] concerns Cd36 gene. Kind of assay: Real-time PCR of lipid metabolism gene expression in liver: Cd36. The conditions noted are these: liver mRNA, relative to Pair-fed group; EtOH+B group, 1 mg/kg oral 10 days (FIG. 11). The procedure: as §1
During a liquid diet adaptation period, a control group was restrictedly fed with a Lieber-DeCarli'82 control liquid diet (F1259SP, Bio-serv), and an alcohol-fed group was restrictedly fed with a Lieber-DeCarli'82 ethanol liquid diet (F1258SP, Bio-serv) using a Liquid diet feeding tube (9019, Bio-serv), and the diets were replaced with new ones at a preset time between 3 P.M. and 5 P.M. […]
Real-time quantitative PCR was performed using a 7500 Real-time Thermal Cycler (Applied Biosystems, USA) with SYBR Green (Applied Biosystems, USA) to measure gene expression. […]
PCR amplification steps as described below were repeated for up to 40 cycles. […] Values were recorded after extension at every cycle.
After completion of all cycles, melting curve analysis was carried out to verify specificity of the primers. The results were analyzed using the One step system software v2.1 provided by Applied Biosystems.
(In general: Real-time PCR tracks product formation cycle by cycle.)

Turning to `O=c1c(O[C@@H]2OC[C@@H](O)[C@H](O)[C@H]2O)c(-c2ccc(O)c(O)c2)oc2cc(O)cc(O)c12` [quercetin-3-O-β-D-xylopyranoside], the p-ACC level entry in assay [1] was “significantly restored”. In assay [2], the ALT level entry is reported as “decreased” and the AST level entry is given as “decreased”. Besides, in assay [3], the “concentration of triglycerides in the blood” value is “significantly reduced” and the “concentration of triglycerides in the liver” value was “significantly reduced”. The “mRNA level of MCP-1” value in assay [4] is “significantly reduced”. Further, the CYP2E1 expression level result in assay [5] is given as “far lower”. For the same compound, in assay [6], the “expression level of the Cd36 gene” value is 0.98 times.
